Legend:
[1] = tested on: mouse 4-Plate model (punished crossings); experiment: Anxiolytic activity, mouse 4-Plate model; type: in vivo, male Swiss Webster mice
Experimental: Anxiolytic activity of the compounds of this invention was determined using the mouse 4-Plate model, originally described by Boissier et al. (Eur. J. Pharmacol. (1968) 4:145-151). The test procedure used is described in further detail below. Anxiolytic efficacy is measured as the ability of the test compound to increase the number of times that an animal will accept a mild punishment (in the form of a foot shock) in order to explore its environment. A number of clinically effective treatments for anxiety from multiple pharmacological classes are effective in this model (Hascoet et al., Pharmacol. Biochem. Beh. (2000) 65:339-344).
The compound of Example 8 was examined in the 4-Plate model.
Experimental Protocol for the 4-Plate Model
The “four-plate” apparatus consisted of a Plexiglas cage (18×25×16 cm) floored by four identical rectangular metal plates (8×11 cm) separated from one another by a gap of 4 mm. The plates were connected to a device that generated electric shocks (0.8 mA, 0.5 sec). […] Test animals (male Swiss Webster mice) were group housed with ad-lib access to food and water. Compounds were administered at the appropriate dose ip. 30 min prior to testing. Control animals were given the vehicle without drug. Animals were then placed in the 4-plate apparatus and allowed to habituate for 18 seconds. Following the 18-sec habituation period, an electric shock (0.8 mA, 0.5 sec) was delivered to the mouse when crossing from one plate to another. No shocks were delivered during the 3 seconds following shock administration. The number of punished crossings was recorded during a 1-min testing period. Data were expressed as the percent change in the number of punished crossings relative to control.

[2] = tested on: seizures induced by administration of pentylenetetrazole (PTZ); experiment: Inhibiting PTZ induced seizures; type: in vivo; conditions: Mus musculus; adult mice, i.p. pretreatment 30 min before PTZ 85 mg/kg s.c., 30 minute test period; read-out: ED50, Dose Range
Experimental: Compounds useful in this invention were also examined for their anticonvulsant activity in vivo by assessing their ability to inhibit the seizures induced by administration of pentylenetetrazole (PTZ). Adult mice were pretreated intraperitoneally with the test compound. Thirty minutes later these animals were challenged with pentylenetetrazole (85 mg/kg, s.c.) and observed for onset of seizures during a 30 minute test period.

[3] = molecular target: T1, human Kv1.1/Kvβ1 potassium ion channel complex (Homo sapiens, UniProt Q09470+Q14722); experiment: Inhibiting the inactivation of Kv1.1/Kvβ1 potassium ion channel complex, voltage clamp current recordings in Xenopus oocytes; type: cell-based; conditions: relative to control oocytes without test compound, read-out: Percent Increase in Steady State Current (@ concentration shown in parentheses)
T1 construct: expressed in transfected cells; host or cells: Xenopus oocytes injected with cRNA
T1 sequence (Q09470 whole entry): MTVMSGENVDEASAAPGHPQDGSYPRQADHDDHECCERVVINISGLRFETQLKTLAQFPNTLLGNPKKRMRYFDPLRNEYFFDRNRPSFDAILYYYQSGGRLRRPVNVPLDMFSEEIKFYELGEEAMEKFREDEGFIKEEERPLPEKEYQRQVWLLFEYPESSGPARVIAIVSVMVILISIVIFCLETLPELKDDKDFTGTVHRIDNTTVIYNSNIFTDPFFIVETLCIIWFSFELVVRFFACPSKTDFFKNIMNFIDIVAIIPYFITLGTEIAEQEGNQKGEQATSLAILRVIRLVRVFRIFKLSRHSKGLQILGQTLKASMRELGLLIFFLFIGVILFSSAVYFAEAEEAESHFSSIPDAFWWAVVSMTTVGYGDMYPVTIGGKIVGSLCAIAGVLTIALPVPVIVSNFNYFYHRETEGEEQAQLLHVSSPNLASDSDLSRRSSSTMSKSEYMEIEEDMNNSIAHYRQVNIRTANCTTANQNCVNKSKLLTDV
T1 sequence (Q14722 whole entry): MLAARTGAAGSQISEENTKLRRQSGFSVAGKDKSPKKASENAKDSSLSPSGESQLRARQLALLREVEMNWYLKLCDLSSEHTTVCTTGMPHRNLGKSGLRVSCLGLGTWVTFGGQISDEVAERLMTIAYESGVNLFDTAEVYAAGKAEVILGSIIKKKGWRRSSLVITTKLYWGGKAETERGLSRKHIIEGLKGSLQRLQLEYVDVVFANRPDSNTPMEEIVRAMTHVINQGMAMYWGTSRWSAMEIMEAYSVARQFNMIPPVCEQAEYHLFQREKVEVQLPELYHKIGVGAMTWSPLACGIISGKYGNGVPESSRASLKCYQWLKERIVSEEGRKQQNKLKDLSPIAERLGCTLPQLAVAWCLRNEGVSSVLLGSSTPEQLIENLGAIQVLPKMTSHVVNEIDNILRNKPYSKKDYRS
Experimental: Compounds useful in this invention were examined for their ability to inhibit the inactivation of the human Kv1.1/Kvβ1 potassium ion channel complex in vitro using electrophysiological current recordings on inactivating Kv1.1/Kvβ1channels expressed in Xenopus oocytes. The following procedure was used.
Xenopus oocytes were harvested from frogs under general anesthesia using aseptic techniques. Oocytes were treated with 2 mg/ml collagenase for 1-1.5 hr, defolliculated, and injected with 40 nL cRNA (a mixture of hKv1.1 and hKvβ1) produced using standard molecular biological techniques (Sambrook, et al., 1989, Molecular Cloning: A Laboratory Manual). The concentration of hKv1.1/hKvβ1 cRNA varies, but was generally about 50 ng/μL hKv1.1 and […] hkβ1.
Currents were recorded using standard voltage clamp amplifiers at room temperature. Recordings were performed in the bath solution “ND-96” containing 96 mM NaCl, 2 mM KCl, 1 mm CaCl2, 1 mM MgCl2, 10 mM HEPES and […] Gentamycin (pH=7.6). The pipette (electrode) solution generally consisted of 3 mM KCl. Electrodes were made from WPI TW150F-4 borosilicate glass (or equivalent) and typically had resistances of 0.5-1.5 Mohms. The standard current—voltage (IV) pulse protocol consisted of voltage steps from −60 mV to +50 mV, in 10 mV increments for 200 ms, at a frequency of one IV set per 2 minutes. Data were digitized and analyzed by standard software packages.
Test compounds where first dissolved in DMSO to an initial concentration of 1-100 mM. Working dilutions of 1:2000 to 1:500 were made in the bath solution for final concentrations in the micromolar range. The bath solutions containing the test compounds were applied by bath perfusion using gravity or pump-driven flow. A minimum of 2 mL (10 times the bath volume) over 3 minutes were flowed for each compound concentration tested. Data were averaged across at least 3 cells tested for each concentration.
Test compounds were examined for their ability to inhibit the inactivation of the steady state portion of the IV curve.

| SMILES | Punished crossings (% of control) ([1]; 0.3 mg/kg ip., 30 min prior to testing) | increase in the number of punished crossings ([1]; at therapeutically relevant doses) | ED50 [2] | melting point | activation at 100 µM [3] | increase in the number of punished crossings ([1]; 56 mg/kg ip) | % Time Spent in Open Zones (Relative to Control) ([1]; 60 mg/kg ip., 30 min prior to testing) | activation at 50 µM ([3]; 50 μm) |
| --- | --- | --- | --- | --- | --- | --- | --- | --- |
| Cc1nnc2n1-c1ccc(Cl)cc1C(c1ccccc1)=NC2 [Alprazolam, reference compound] | 170% | 70% | – | – | – | – | – | – |
| CC1(C)CC(=O)C(C(=O)Nc2cccc(Cl)c2)C(=O)C1 [Example 1, N-(3-chlorophenyl)-4,4-dimethyl-2,6-dioxocyclohexanecarboxamide] | – | – | 30 mg/kg | 89 to 91 °C | 21% | – | – | – |
| CC1(C)CC(=O)C(C(=O)Nc2ccc(Cl)c(Cl)c2)C(=O)C1 [Example 2, N-(3,4-dichlorophenyl)-4,4-dimethyl-2,6-dioxocyclohexanecarboxamide] | – | – | 50 mg/kg | 124 to 129 °C | 75% | – | – | – |
| CC1(C)CC(=O)C(C(=O)Nc2cccc(C(F)(F)F)c2)C(=O)C1 [Example 8, N-(3-trifluoromethylphenyl)-4,4-dimethyl-2,6-dioxocyclohexanecarboxamide] | – | – | 32 mg/kg | 116 to 117 °C | 40% | 31% | 131% | – |
| CC1(C)CC(=O)C(C(=O)Nc2cc(C(F)(F)F)cc(C(F)(F)F)c2)C(=O)C1 [Example 9, N-[3,5-bis(trifluoromethyl)phenyl]-4,4-dimethyl-2,6-dioxocyclohexanecarboxamide] | – | – | 55 mg/kg | – | – | – | – | 20% |
